This note sets out measurements from PubChem BioAssay AID179 (DTP/NCI, 2004).

For this assay, the system named is CEM cells HIV-1 protection, formazan growth assay. The assay can be described thus: NCI AIDS Antiviral Assay. The note with it: for IC50: measured here: growth of uninfected CEM cells. In a few lines:
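Screen of anti-HIV-1 activity in human CEM cells using a formazan-based growth measurement at five drug concentrations. Hits with 50% or greater protection were repeated, and confirmation required reproducible complete protection.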

Structures are written as SMILES. Activity calls are given as the source filed them.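 How the source made its calls: active means compounds giving half or more protection of infected cells from virus-caused growth loss, again on retest; inactive means the rest.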

By EC50 is commonly meant the concentration at which the effect is half-maximal. One may read the IC50 as the point on the concentration scale where inhibition reaches its midpoint. Low readings indicate greater potency in that assay, high ones weaker potency in that assay.

Consider `CC[N+](CC)(CCNCC(N)=O)CC(N)=O`, for which the EC50 was above 200 µM and the concentration for half-maximal inhibition (IC50) is above 200 µM.
`COc1ccc2[nH]c3c(c2c1)CC(=O)N1CCC[C@H](C1)CC31OCCCO1`: the EC50 was above 200 µM and the IC50 turned out to be 112 µM.
Consider `Cn1c(=O)n2c(-c3ccccc3)c(-c3ccccc3)n2c1=O`, for which the EC50 was above 200 µM and the concentration for half-maximal inhibition (IC50) turned out to be 102 µM.
`Cc1ccc([N+](=O)[O-])cc1NC(=O)C(=O)Cc1nc2ccc(C(=O)c3ccccc3)cc2[nH]c1=O`: the EC50 was above 275 µM and the IC50 was determined as 110 µM.
With `COc1cc2ccc3c(c2cc1OC)CCc1cnoc1-3`, the EC50 was above 47.9 µM and the concentration for half-maximal inhibition (IC50) was above 47.9 µM.
Regarding `C=CCC(N)Cc1ccccc1` (centres undefined), the EC50 was above 200 µM and the IC50 was above 200 µM.
`Clc1cccc(C2SCc3nc4ccccc4n32)c1Cl` (centres undefined): the outcome was inactive.
For the compound `[N-]=[N+]=Nc1cc(=O)oc2ccccc12`, the EC50 was above 200 µM and the 50% inhibitory concentration (IC50) turned out to be 117 µM.
Taken in the same sequence, the figures for `CCN(C(=N)C#N)c1ccccc1` were above 513 µM and 302 µM.
Regarding `Cc1cc(C)c2c(c1)sc1nncn12`, the outcome was inactive.
`CNC1(C#N)CCN(Cc2ccccc2)CC1`: the EC50 was above 200 µM and the concentration for half-maximal inhibition (IC50) was above 200 µM.
On to `CCOC(=O)/C(=C\c1cccc(C(F)(F)F)c1)P(=O)(OCC)OCC`, for which the EC50 was above 95.5 µM and the half-inhibitory concentration (IC50) worked out at 5.01 µM.
With `COc1cc(-c2[nH]ncc2CCCC(=O)Nc2ccccc2[N+](=O)[O-])ccc1O`, the outcome was inactive.
As to `N#C[C@H](C(=O)c1ccccc1F)c1nc2ccccc2[nH]1`, the concentration for a half-maximal effect (EC50) is 170 µM and the IC50 is above 200 µM.
Take `O=S1(=O)CC(c2ccccc2)(c2ccccc2)Nc2ccccc21`: the EC50 was above 200 µM and the 50% inhibitory concentration (IC50) is above 100 µM.
With `CCCCCCCCCC(=O)CC(=O)c1c(O)cc(O)cc1O`, the EC50 was above 200 µM and the IC50 amounted to 26.3 µM.
In the case of `CCC1(C)NN=c2s/c(=C/c3ccc(OC)cc3)c(=O)n2N1` (centres undefined), the result was inactive.
On to `COc1cccc(C2c3cc4c(cc3OC(N3CCCC3)C2C)OCO4)c1OC` (centres undefined), for which the EC50 was above 200 µM and the IC50 came to 1.41 µM.
In the case of `COc1cc2ccc(CC#N)cc2cc1OC`, the result was inactive.
Consider `COc1ccc2c(c1)CCc1c-2n(CCN(C)C)c2ccc(OC)cc12`, for which the EC50 was above 200 µM and the IC50 amounted to 6.17 µM.
Regarding `NS(=O)(=O)c1ccc(NC(=O)Nc2cc(C(F)(F)F)ccc2Cl)cc1`, the EC50 was above 200 µM and the IC50 was 10.2 µM.
For the compound `Cn1cc(NC(=O)c2cc(NC(=O)CCCCCCCCCC(=O)Nc3cc(C(=O)Nc4cc(C(=O)NCCC(=N)N)n(C)c4)n(C)c3)cn2C)cc1C(=O)NCCC(=N)N`, the EC50 is 4.37 µM and the IC50 came out at 5.75 µM.
`Clc1ccc(-c2c(C3=NCCN3)nnn2-c2ccc(Cl)cc2)cc1`: the EC50 is above 138 µM and the concentration for half-maximal inhibition (IC50) amounted to 115 µM.
Take `COc1ncc(/C=C2\OC(=O)c3ccccc32)c(OC)n1`: the EC50 was above 200 µM and the IC50 is above 200 µM.
For the compound `O=C1NCC(=O)c2ncn(C3OC(CO)C(O)C3O)c2N1` (centres undefined), the EC50 is above 603 µM and the IC50 was above 603 µM.
Consider `COc1ccc(/C=C2/CSCC3=C2NC(=S)NC3c2ccc(OC)c(OC)c2OC)c(OC)c1OC` (centres undefined), for which the EC50 is above 200 µM and the IC50 was 8.51 µM.
`Cc1ccc(S(=O)(=O)OC2CSS(=O)CC2OS(=O)(=O)c2ccc(C)cc2)cc1` (centres undefined): the EC50 was above 200 µM and the IC50 turned out to be 9.33 µM.
Take `Cc1ccc(NC(=O)CCc2n[nH]c(=S)o2)cc1`: the EC50 is above 5.5 µM and the 50% inhibitory concentration (IC50) is above 5.5 µM.
On to `CCN(CC)CCOc1ccc(/C(C#N)=C/c2ccc(C(F)(F)F)cc2)cc1`, for which the EC50 is above 20 µM and the IC50 was 1.23 µM.
For `[N-]=[N+]=NC12CC3CC(CC(C3)C1)C2`, the EC50 was above 380 µM and the IC50 was above 380 µM.
Take `O=c1cc(NCC2CCCCC2)[nH]c(=O)[nH]1`: the EC50 is above 200 µM and the IC50 was above 200 µM.
For `CCOC(=O)N1CC2OC(n3cc(C)c(=O)[nH]c3=O)CC2O1` (centres undefined), the EC50 was above 200 µM and the 50% inhibitory concentration (IC50) was above 200 µM.
As for `O=C(/C=C/c1ccccc1[N+](=O)[O-])c1ccccc1`, the EC50 is above 39.8 µM and the 50% inhibitory concentration (IC50) was determined as 6.92 µM.
As for `O=C(Nc1sccc1S(=O)(=O)c1ccc(Cl)cc1)C(F)(F)F`, the EC50 was above 200 µM and the IC50 is 9.55 µM.
Regarding `COc1ccc2[nH]c(C)cc2c1CN`, the EC50 is above 575 µM and the IC50 turned out to be 120 µM.
The corresponding values for `CCOC(=O)c1c(C)n(C)c2c1nnc1ccccc12` are above 200 µM and 129 µM.
Turning to `CCOC(=O)CC1NC(=O)CS1` (centres undefined), the EC50 was above 138 µM and the 50% inhibitory concentration (IC50) was above 138 µM.
As to `CN(C(=O)c1cc2c(s1)sc1c(=O)n(C)c3ccccc3c12)c1ccccc1`, the EC50 was above 200 µM and the concentration for half-maximal inhibition (IC50) worked out at 2.95 µM.
As for `COc1cc(C=NC2CCCCC2)cc(OC)c1OC`, the EC50 is above 182 µM and the concentration for half-maximal inhibition (IC50) was 95.5 µM.
The corresponding values for `CC1C2CC(C(S(=O)(=O)N3CCOCC3)/C2=N\O)C1(C)C` (centres undefined) are above 200 µM and 195 µM.
`COc1cc2c(cc1O)Cc1c-2[n+](C)cc2cc(OC)c(OC)cc12`: the EC50 was above 347 µM and the IC50 was found to be 1.62 µM.
For `O=C(O)CCc1ccc(O)c(O)c1`, the result was inactive.
Consider `COC(=O)c1cccc(C)c1C1CN=NC12Cc1cc(C)cc(C)c1C2=O` (centres undefined), for which the EC50 is above 200 µM and the half-inhibitory concentration (IC50) amounted to 12.3 µM.
For `O=C1OC(=O)C2=C1C(c1cccs1)C=C(c1cccnc1)N2c1ccncc1` (centres undefined), the EC50 was above 200 µM and the half-maximal inhibitory concentration (IC50) turned out to be 9.77 µM.
On to `CC1=C2CC/C(C)=C/CCC3(C)OC3CC/C(C)=C/C2OC1=O` (centres undefined), for which the EC50 is above 200 µM and the IC50 is above 200 µM.
Take `O=C1CCCCC1CN1CCCCC1` (centres undefined): the result was inactive.
For the compound `COC(=O)c1cc2cccc(CS(=O)(=O)O)c2cc1O`, the EC50 is above 200 µM and the IC50 was 21.4 µM.
In the case of `O=C(O)[C@H](NS(=O)(=O)c1ccc([N+](=O)[O-])cc1)c1ccccc1`, the result was inactive.
Turning to `CC(=O)N/C(=C\c1ccc(/C=C(\NC(C)=O)C2=NC3C(=O)c4ccccc4C(=O)C3N2)cc1)C1=NC2C(=O)c3ccccc3C(=O)C2N1` (centres undefined), the result was inactive.
Turning to `CCCC1(c2ccccc2)Oc2ccccc2-n2cccc2C1=O` (centres undefined), the EC50 is above 200 µM and the half-maximal inhibitory concentration (IC50) was 40.7 µM.
`COC(=O)CCC(=O)CC(=O)C(=O)Nc1ccc(F)cc1`: the EC50 was above 45.7 µM and the IC50 was above 45.7 µM.
Regarding `CCCCCCN(CCCCCC)C(=O)C1=C(C)NC(C)=C(C(=O)N(CCCCCC)CCCCCC)C1`, the EC50 was above 200 µM and the IC50 worked out at 95.5 µM.
Consider `COC1=C(CC(C)=O)C(=O)c2c(O)c(CO)cc(O)c2C1=O`, for which the outcome was inactive.
On to `[O-][n+]1c(-c2ccccc2)oc2ccccc21`, for which the EC50 was above 9.55 µM and the IC50 was above 9.55 µM.
Turning to `S=C1CCCCCN1`, the EC50 was above 1950 µM and the IC50 came out at 1020 µM.
For the compound `O=c1[nH]nc(-c2ccccc2)c(-c2ccccc2)c1-n1nc(-c2ccccc2)c2ccccc2c1=O`, the EC50 was above 10.7 µM and the half-inhibitory concentration (IC50) was above 10.7 µM.
For the compound `Cn1cc2ccccc2c1-c1nc(F)nc(OCC(=O)[C@H]2CCC3[C@@H]4CCC5=CC(=O)CC[C@]5(C)C4[C@@H](O)C[C@@]32C)n1` (some centres undefined), the EC50 is above 9.12 µM and the 50% inhibitory concentration (IC50) is 2.75 µM.
Consider `C/C=C1\CNC2Cc3c([nH]c4ccccc34)C(=O)CC1C2C(=O)OC` (centres undefined), for which the outcome was inactive.
In the case of `O=c1cc(N=Nc2ccc(Cl)cc2)[nH]c(=O)[nH]1`, the EC50 is above 2 µM and the concentration for half-maximal inhibition (IC50) is 0.851 µM.
On to `CN1CCC[C@H]1C(=O)c1oc(CO)cc(=O)c1O`, for which the outcome was inactive.
Turning to `CCCc1cc(=O)oc2c3c(c4c(c12)OC(C)(C)C=C4)O[C@H](C)C(C)[C@@H]3O` (some centres undefined), the EC50 was 0.331 µM and the half-inhibitory concentration (IC50) amounted to 25.1 µM.
On to `O=S1(=O)CS(=O)(=O)OCCCCCO1`, for which the EC50 is above 537 µM and the half-inhibitory concentration (IC50) was above 537 µM.
On to `O=C(C[C@H](NC(=O)OCc1ccccc1)C(=O)NC1Cc2ccccc2OC1=O)OCc1ccccc1` (some centres undefined), for which the EC50 is above 200 µM and the IC50 amounted to 93.3 µM.
Regarding `CCOC(=O)/C(=C\c1ccccc1OC)P(=O)(OCC)OCC`, the EC50 was above 724 µM and the concentration for half-maximal inhibition (IC50) was 13.2 µM.
In the case of `CCc1c2c(cc3c1CC1(C3)Cc3cc4c(c(C(=O)OC)c3C1)CCCC4)CCCC2` (centres undefined), the EC50 is above 200 µM and the 50% inhibitory concentration (IC50) worked out at 166 µM.
Take `CC(=O)CC1=C(OC(C)C)C2(OCCO2)C1O` (centres undefined): the EC50 is above 200 µM and the IC50 was above 200 µM.
`COc1ccc(C2=C3c4cc(OC)c(OC)cc4CCN3C(=S)SS2)cc1OC`: the result was inactive.
`COc1ccc(CCN2CCOCC2)cc1`: the EC50 is above 200 µM and the half-inhibitory concentration (IC50) is above 200 µM.
For `Cc1cc(Cl)cc2c1NC(=O)C2(O)C(C(=O)c1ccccc1)c1ccccc1` (centres undefined), the EC50 was above 91.2 µM and the IC50 is above 91.2 µM.
As for `O=C1CN(C(=O)C2CCCN2C(=O)C2CCCN2)C(=O)CN1` (centres undefined), the EC50 is above 200 µM and the IC50 is above 200 µM.
For the compound `N#CC1=C(O)NC(O)=C(C#N)C1c1ccc(Cl)cc1Cl`, the EC50 was above 17 µM and the IC50 is above 17 µM.
For `O=c1c2cnccc2cc2n1CCc1c-2[nH]c2ccccc12`, the EC50 was above 77.6 µM and the IC50 worked out at 10.2 µM.
With `C(=C(\C[P+](c1ccccc1)(c1ccccc1)c1ccccc1)c1ccccc1)/c1ccccc1`, the EC50 was above 200 µM and the IC50 worked out at 1 µM.
Taken in the same sequence, the figures for `Cc1nc2cncnc2n(CCN2CCOCC2)c1=O` were above 200 µM and 46.8 µM.
For the compound `CC(=O)NC(CCC(=O)c1ccc(Cl)cc1Cl)(C(=O)O)C(=O)O`, the EC50 is above 200 µM and the 50% inhibitory concentration (IC50) is above 200 µM.
Regarding `CN(C)C(=O)C1(c2ccc(Cl)cc2)CCN(CCCC(=O)c2ccc(F)cc2)CC1`, the EC50 was above 79.4 µM and the IC50 stood at 69.2 µM.
